The term IC50 denotes the midpoint of a concentration-inhibition curve.

For the test, the target named is SREBP-2 (Homo sapiens (Human), UniProt Q12772). Nature of the test: In vitro assay SREBP-2: PathHunter U2OS SREBP-2 Nuclear Translocation Cell Line, U18666A-stimulated. The format is cell-based. Conditions: PathHunter U2OS SREBP-2 nuclear translocation cells, U18666A 10 μM, overnight (16 hours).

Bounds are passed on as bounds.

`Cc1ccncc1O[C@@H](C)[C@H]1CC[C@H]2[C@@H]3CC=C4C[C@@H](O)CC[C@]4(C)[C@H]3CC[C@]12C` [Example 271, (3S,8S,9S,10R,13S,14S,17S)-10,13-dimethyl-17-((S)-1-((4-methylpyridin-3-yl)oxy)ethyl)-2,3,4,7,8,9,10,11,12,13,14,15,16,17-tetradecahydro-1H-cyclopenta[a]phenanthren-3-ol] came in with a half-inhibitory concentration (IC50) of 0.25 to 1 µM.

For `Cc1cncc(O[C@@H](C)[C@H]2CC[C@H]3[C@@H]4CC=C5C[C@@H](O)CC[C@]5(C)[C@H]4CC[C@]23C)c1` [Example 272, (3S,8S,9S,10R,13S,14S,17S)-10,13-dimethyl-17-((S)-1-((5-methylpyridin-3-yl)oxy)ethyl)-2,3,4,7,8,9,10,11,12,13,14,15,16,17-tetradecahydro-1H-cyclopenta[a]phenanthren-3-ol], the half-inhibitory concentration (IC50) is less than 0.25 µM. Turning to `Cc1ccc(O[C@@H](C)[C@H]2CC[C@H]3[C@@H]4CC=C5C[C@@H](O)CC[C@]5(C)[C@H]4CC[C@]23C)cn1` [Example 273, (1S,3aS,3bS,7S,9aR,9bS,11aS)-9a,11a-dimethyl-1-[(1S)-1-[(6-methylpyridin-3-yl)oxy]ethyl]-1H,2H,3H,3aH,3bH,4H,6H,7H,8H,9H,9aH,9bH,10H,11H,11aH-cyclopenta[a]phenanthren-7-ol], the half-maximal inhibitory concentration (IC50) is less than 0.25 µM. In turn, `CC(=O)N1CCC(C(=O)N(C)CC[C@@H](C)[C@H]2CC[C@H]3[C@@H]4CC=C5C[C@@H](O)CC[C@]5(C)[C@H]4CC[C@]23C)CC1` [Example 294, 1-acetyl-N—((R)-3-((3S,8S,9S,10R,13R,14S,17R)-3-hydroxy-10,13-dimethyl-2,3,4,7,8,9,10,11,12,13,14,15,16,17-tetradecahydro-1H-cyclopenta[a]phenanthren-17-yl)butyl)-N-methylpiperidine-4-carboxamide] displayed a concentration for half-maximal inhibition (IC50) of 0.25 to 1 µM. For `CC(=O)N(C)C1CN(C(=O)CC[C@@H](C)[C@H]2CC[C@H]3[C@@H]4CC=C5C[C@@H](O)CC[C@]5(C)[C@H]4CC[C@]23C)C1` [Example 325, N-(1-((R)-4-((3S,8S,9S,10R,13R,14S,17R)-3-hydroxy-10,13-dimethyl-2,3,4,7,8,9,10,11,12,13,14,15,16,17-tetradecahydro-1H-cyclopenta[a]phenanthren-17-yl)pentanoyl)azetidin-3-yl)-N-methylacetamide], the IC50 fell in the range of 0.25 to 1 µM. For the compound `CC(=O)NC1CN(C(=O)CC[C@@H](C)[C@H]2CC[C@H]3[C@@H]4CC=C5C[C@@H](O)CC[C@]5(C)[C@H]4CC[C@]23C)C1` [Example 326, N-{1-[(4R)-4-[(1R,3aS,3bS,7S,9aR,9bS,11aR)-7-hydroxy-9a,11a-dimethyl-1H,2H,3H,3aH,3bH,4H,6H,7H,8H,9H,9aH,9bH,10H,11H,11aH-cyclopenta[a]phenanthren-1-yl]pentanoyl]azetidin-3-yl}acetamide], the 50% inhibitory concentration (IC50) was in the range of 0.25 to 1 µM. With `CC(=O)N1CCC2(C1)CN(C(=O)CC[C@@H](C)[C@H]1CC[C@H]3[C@@H]4CC=C5C[C@@H](O)CC[C@]5(C)[C@H]4CC[C@]13C)C2` [Example 327, (4R)-4-[(1R,3aS,3bS,7S,9aR,9bS,11aR)-7-hydroxy-9a,11a-dimethyl-1H,2H,3H,3aH,3bH,4H,6H,7H,8H,9H,9aH,9bH,10H,11H,11aH-cyclopenta[a]phenanthren-1-yl]-1-{6-acetyl-2,6-diazaspiro[3.4]octan-2-yl}pentan-1-one], the 50% inhibitory concentration (IC50) is 0.25 to 1 µM. As to `CC(=O)N1CC2(C1)CN(C(=O)CC[C@@H](C)[C@H]1CC[C@H]3[C@@H]4CC=C5C[C@@H](O)CC[C@]5(C)[C@H]4CC[C@]13C)C2` [Example 328, (4R)-4-[(1R,3aS,3bS,7S,9aR,9bS,11aR)-7-hydroxy-9a,11a-dimethyl-1H,2H,3H,3aH,3bH,4H,6H,7H,8H,9H,9aH,9bH,10H,11H,11aH-cyclopenta[a]phenanthren-1-yl]-1-{6-acetyl-2,6-diazaspiro[3.3]heptan-2-yl}pentan-1-one], the half-inhibitory concentration (IC50) lay in the range of 0.25 to 1 µM. To `C#CC1(OC)CCN(C(=O)CC[C@@H](C)[C@H]2CC[C@H]3[C@@H]4CC=C5C[C@@H](O)CC[C@]5(C)[C@H]4CC[C@]23C)CC1` [Example 330, (R)-1-(4-ethynyl-4-methoxypiperidin-1-yl)-4-((3S,8S,9S,10R,13R,14S,17R)-3-hydroxy-10,13-dimethyl-2,3,4,7,8,9,10,11,12,13,14,15,16,17-tetradecahydro-1H-cyclopenta[a]phenanthren-17-yl)pentan-1-one] belongs less than 0.25 µM; to `C[C@H](CCC(=O)N1CCC(O)(c2ccnnc2)CC1)[C@H]1CC[C@H]2[C@@H]3CC=C4C[C@@H](O)CC[C@]4(C)[C@H]3CC[C@]12C` [Example 343, (R)-4-((3S,8S,9S,10R,13R,14S,17R)-3-hydroxy-10,13-dimethyl-2,3,4,7,8,9,10,11,12,13,14,15,16,17-tetradecahydro-1H-cyclopenta[a]phenanthren-17-yl)-1-(4-hydroxy-4-(pyridazin-4-yl)piperidin-1-yl) pentan-1-one], 1 to 10 µM; to `C[C@H](CCC(=O)N1CCC(O)(c2ccncc2)CC1)[C@H]1CC[C@H]2[C@@H]3CC=C4C[C@@H](O)CC[C@]4(C)[C@H]3CC[C@]12C` [Example 344, (R)-4-((3S,8S,9S,10R,13R,14S,17R)-3-hydroxy-10,13-dimethyl-2,3,4,7,8,9,10,11,12,13,14,15,16,17-tetradecahydro-1H-cyclopenta[a]phenanthren-17-yl)-1-(4-hydroxy-4-(pyridin-4-yl)piperidin-1-yl)pentan-1-one], less than 0.25 µM.

Compound `C[C@H](CCC(=O)N1CCCC(c2ccnnc2)C1)[C@H]1CC[C@H]2[C@@H]3CC=C4C[C@@H](O)CC[C@]4(C)[C@H]3CC[C@]12C` (stereo partly drawn) [Example 345, (4R)-4-((3S,8S,9S,10R,13R,14S,17R)-3-hydroxy-10,13-dimethyl-2,3,4,7,8,9,10,11,12,13,14,15,16,17-tetradecahydro-1H-cyclopenta[a]phenanthren-17-yl)-1-(3-(pyridazin-4-yl)piperidin-1-yl)pentan-1-one] registered an IC50 of 0.25 to 1 µM. `C[C@H](CCC(=O)N1CCCC(c2ccncc2)C1)[C@H]1CC[C@H]2[C@@H]3CC=C4C[C@@H](O)CC[C@]4(C)[C@H]3CC[C@]12C` (stereo partly drawn) [Example 346, (4R)-4-((3S,8S,9S,10R,13R,14S,17R)-3-hydroxy-10,13-dimethyl-2,3,4,7,8,9,10,11,12,13,14,15,16,17-tetradecahydro-1H-cyclopenta[a]phenanthren-17-yl)-1-(3-(pyridin-4-yl)piperidin-1-yl)pentan-1-one] returned an IC50 of less than 0.25 µM. As to `C[C@H](CNC(=O)N(C)C)[C@H]1CC[C@H]2[C@@H]3CC=C4C[C@@H](O)CC[C@]4(C)[C@H]3CC[C@]12C` [Example 347, 3-((S)-2-((3S,8S,9S,10R,13S,14S,17R)-3-hydroxy-10,13-dimethyl-2,3,4,7,8,9,10,11,12,13,14,15,16,17-tetradecahydro-1H-cyclopenta[a]phenanthren-17-yl)propyl)-1,1-dimethylurea], the IC50 is 0.25 to 1 µM.

These data come from patent publication US20230340011A1 (Asteroid Therapeutics, priority 2022, published 2023).
